This is an account of results in US20220378761A1, “PAPD5 Inhibition As A Treatment For Dyskeratosis Congenita, Aplastic Anemia And Myelodysplastic Syndrome Caused By Reduced Telomerase RNA Levels” (The Regents of The University of Colorado, A Body Corporate, priority 2019, published 2022).

Holding throughout (type): cell-based, Homo sapiens
Data set [1] relates to DKC1_A353V hESCs. The data set can be described thus: Toxicity in DKC1_A353V hESCs (NANOG qRT-PCR, EdU incorporation). Conditions: concentrations indicated, entire duration (60 days). Here is the method:
FIG. 5. No detectable RG7834 toxicity in hESCs. (A) Representative immunoblot analysis of γH2AX in DKC1_A353V hESCs treated with different concentrations of RG7834 (indicated in the figure). Positive control: Etoposide 50 nM. Actin is shown as a loading control. (B) Quantification of NANOG by qRT-PCR in DKC1_A353V hESCs treated with DMSO or different concentrations of RG7834 (as indicated) for 60 days. (C) Flow cytometry analysis of EdU incorporation with DNA content (DAPI) in DKC1_A353V hESCs, treated with DMSO or 5 μM of RG7834 for 60 days. Quantification of active proliferating cells (EdU positive) is indicated. (D) MA plot for the analysis of RNA-sequencing experiments between DMSO or RG7834 treated DKC1_A353V hESCs. No significant differences in gene expression were found.
The present inventors investigated if treatment with RG7834 was sufficient to reduce DNA damage signaling arising from eroded telomeres, a hallmark of DC.
In general terms: In qPCR the cycle at which signal appears reflects the starting amount.

Data set [2] deals with DKC1_A353V hESCs. Briefly: Telomere length by telomere restriction fragment analysis in DKC1_A353V hESCs. The conditions noted are these: sustained treatment up to 3 months. On the procedure: Telomere length analysis: Telomere length analysis were performed by Telomere Repeat Fragment (TRF) technique. Briefly, DNA was extracted using tail lysis buffer (10 mM Tris-HCl, pH 8.0, 100 mM NaCl, 10 mM EDTA, 0.5% SDS supplemented with 400 μg/ml Proteinase K) at 55° C. overnight. 10 μg of DNA was digested with Rsa1 and Hinf1 restriction enzymes (New England Biolabs, Ispwich, Mass.) overnight and 2.5 μg of product was resolved in a 0.75% agarose gel for 16 hr at 85V in TBE buffer. The gel was incubated with denaturing buffer (1.5M NaCl and 0.5M NaOH) for 45 min followed by neutralizing buffer (1.5M NaCl, 1M Tris-HCl at pH 7.4) for 1 hr. DNA was transferred to a nitrocellulose membrane by capillary action for 2 days in 10× saline-sodium citrate (3M NaCl, 0.3M sodium citrate dehydrate at pH 7.0). After cross-linking, the membrane was hybridized with a ^32P-labelled probe (CCCTAA) and exposed to Carestream BioMax MT film. Mean telomere length was analyzed using TeloTool with the corrected and nonlinear fit order 1 ladder fit options.

Data set [3] has as its system telomerase. The data set can be described thus: Telomerase activity by telomere repeat amplification (TRAP) in HeLa cells. Further details: dose or concentration left out as unconfirmed. Conditions: DKC1- and PARN-depleted HeLa cells, RG7834 or DMSO (FIG. 1D). On the procedure:
Th present inventors have previously shown that in DKC1- or PARN-depleted cells, TERC accumulates in cytoplasmic puncta called “cyTER bodies,” instead of its normal localization to cajal bodies in the nucleus. To investigate whether RG7834 treatment rescued TERC localization to cajal bodies in the nucleus, DKC1- or PARN-depleted cells were treated with RG7834 for 2 days. […] Upon treatment with RG7834, —38% of cells had TERC localized to cajal bodies, which is consistent with the 1.5× increase in TERC levels in these cells. RG7834 treatment also rescued TERC localization to cajal bodies in PARN-depleted cells. In PARN knockdown cells, ˜34% of cells had TERC in cajal bodies, with TERC also mostly being localized to cyTER bodies in these cells. However, upon RG7834 treatment, ˜85% of cells had TERC localized to cajal bodies.
Detection of telomerase activity: Telomerase activity was assessed by Telomere Repeat Amplification Protocol (TRAP). Briefly, cells were lysed in NP-40 buffer at 4° C. for 20 min and centrifuged at 13,000 rpm for 10 min. Telomere extension reactions were performed using 2, 0.5, and 0.125 μg of protein and following products were amplified by PCR. Adenosine triphosphate, labeled on the gamma phosphate group with 32P (Perkin-Elmer, USA) was used for labelling of PCR products. […]

The test system of the next data set is TERC. The data set can be described thus: TERC quantification by qRT-PCR in DKC1_A353V hESCs. The conditions noted are these: for TERC levels: DKC1_A353V hESCs. The source says: (§1) Treatment of DKC1_A353V hESCs with RG7834 caused a >15-fold reduction in the 3′-end oligoadenylation of TERC, indicating efficient PAPD5 inhibition in these cells (FIG. 2A).
RNA extraction and Quantitative real-time PCR: Total RNA was isolated using Trizol (Invitrogen) in accordance with the manufacturer's instructions followed by Turbo DNA-free DNase (Invitrogen) treatment. RNA was converted into cDNA using Superscript III First Strand synthesis kit (Invitrogen) following manufacturer's instructions. Real-time PCR was performed using Evagreen master mix (Lambda Biotech, St. Louis, Mo.) on a StepOne Plus instrument DNase treatment (Thermo Fisher Scientific). For TERC analysis, Brilliant II 1-step qRT-PCR master mix (Agilent, Santa Clara, Calif.) was used following manufacturer's instructions. Reactions were performed in triplicates with 100 ng of RNA per reaction and used gene-specific (for/rev) primers were as follows: […]

In data set [4] the test system is telomerase. Briefly: Telomerase activity by TRAP in DKC1_A353V hESCs. The conditions noted are these: different concentrations. Here is the method:
as §1
Detection of telomerase activity: Telomerase activity was assessed by Telomere Repeat Amplification Protocol (TRAP). Briefly, cells were lysed in NP-40 buffer at 4° C. for 20 min and centrifuged at 13,000 rpm for 10 min. Telomere extension reactions were performed using 2, 0.5, and 0.125 μg of protein and following products were amplified by PCR. Adenosine triphosphate, labeled on the gamma phosphate group with 32P (Perkin-Elmer, USA) was used for labelling of PCR products. TRAP was performed in accordance with the manufacturer's instructions (TRAPeze, Millipore Sigma, Burlington, Mass.). Samples were run in 9% polyacrylamide gel in 0.5× TBE buffer for 3 hr at 250V. Gel was dried at 80° C. for 30 min and exposed to Carestream BioMax MR film (Kodak, Rochester, N.Y.).

The structures appear in SMILES notation.

As to `COCCCOc1cc2c(cc1OC)-c1cc(=O)c(C(=O)O)cn1[C@H](C(C)C)C2` [RG7834], the “toxicity associated with RG7834 treatment” value in the data set with DKC1_A353V hESCs [1] was “no toxicity associated with RG7834 treatment was detected”. Also, the “telomere maintenance (telomere length)” value in the data set on DKC1_A353V hESCs [2] is “improved telomere maintenance”. For the same molecule, the telomerase activity entry was “increase telomerase activity” in the data set with telomerase [3] and “noticeable rise in telomerase activity” in the data set with telomerase [4]. Besides, the TERC levels entry is reported as “significant increase in TERC levels” in the data set with TERC (4 days of treatment) and “sustained up to 30 days” in the data set on TERC (continuous treatment up to 30 days, different concentrations). In addition, the “TERC levels in the stem cell model of DC” value in the data set on TERC (stem cells carrying disease-causing DKC1 mutations) is given as “partially rescued TERC levels”.
